Columns and labels:
[1] = test system: HCC159 lung adenocarcinoma cells; assay: Tim4-IgG1 Fc staining for phosphatidylserine exposure after EGFR inhibitor treatment; assay type: cell-based; conditions: 12 hours, increasing concentrations 50 nM and higher
Description: HCC159 lung adenocarcinoma cells harbor an EGFR mutation and are sensitive to EGFR inhibition.

[2] = test system: dexamethasone pre-treated thymocytes; assay: Phagocytosis of thymocytes by CER Ba/F3 cells in presence or absence of Racl inhibitor; assay type: cell-based

Compound | surface staining with Tim4-IgG1 Fc fusion protein (phosphatidylserine exposure) [1] | effect of Racl inhibitor on phagocytosis by CER21-transduced Ba/F3 cells ([2]; 6 hour co-culture, FACS) | effect of Racl inhibition on CER116 mediated phagocytosis ([2]; Ba/F3 cells, fluorescent micrographs)
C#Cc1cccc(Nc2ncnc3cc(OCCOC)c(OCCOC)cc23)c1 [Erlotinib] | enhanced surface staining with Tim4-IgG1 Fc fusion protein |  | 
CCN(CC)CCCC(C)Nc1nc(C)cc(Nc2ccc3nc(C)cc(N)c3c2)n1 (stereo not shown) [NSC23766] |  | abolishes phagocytosis | abolishes CER116 mediated phagocytosis of thymocytes
C=CC(=O)Nc1cc(Nc2nccc(-c3cn(C)c4ccccc34)n2)c(OC)cc1N(C)CCN(C)C [Osimeritinib] | enhanced surface staining with Tim4-IgG1 Fc fusion protein |  | 

Source: US11708423B2, “Chimeric engulfment receptor molecules and methods of use” (CERO THERAPEUTICS, INC., priority 2017, dated 2023)
